In patent US5874457A, “Imidazolylalkyl derivatives of imidazo[1,5-a]indol-3-one” (Pharmacia & Upjohn S.p.A., priority 1994, dated 1999):

Legend:
5-HT3 [1] = biological target: T1, 5-HT3 (Rattus norvegicus, UniProt P35563); experiment: Inhibition of the von Bezold-Jarisch chemoreflex evoked by 5-HT in the anesthetized rat (5HT3 antagonist activity in vivo); set-up: evoked by 5-HT in the anesthetized rat; from tissue; host or cells: living anesthetized rat (in vivo; native receptors, by own knowledge on cardiac vagal afferents); conditions: 5-HT 30 μg/kg i.v.
T1 sequence (P35563 24-483): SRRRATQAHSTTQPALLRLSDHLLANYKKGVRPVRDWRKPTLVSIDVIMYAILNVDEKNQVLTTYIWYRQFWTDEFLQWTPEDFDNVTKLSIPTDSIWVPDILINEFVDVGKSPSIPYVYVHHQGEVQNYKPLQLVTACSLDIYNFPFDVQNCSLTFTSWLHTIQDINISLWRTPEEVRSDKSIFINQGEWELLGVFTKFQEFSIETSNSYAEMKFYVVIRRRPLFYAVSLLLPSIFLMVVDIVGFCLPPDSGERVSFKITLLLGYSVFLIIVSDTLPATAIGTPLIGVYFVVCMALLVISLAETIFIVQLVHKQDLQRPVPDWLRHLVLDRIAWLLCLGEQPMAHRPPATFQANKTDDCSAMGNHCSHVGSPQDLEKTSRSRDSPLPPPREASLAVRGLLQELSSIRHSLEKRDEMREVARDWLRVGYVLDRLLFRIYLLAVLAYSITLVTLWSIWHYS
Experimental: Pharmacol. 326, 36-44 (1984).
The following Table I reports in-vivo 5HT3 antagonist activity data obtained in this test for the representative compound of the invention 2-(5-methyl-1H-imidazol-4-yl)methyl-1,2-dihydro-imidazo[1,5-a]indol-3-one (internal code […]).
elicited by 5-HT (30 μg/kg i.v.) by FCE 28572
in the anesthetized rat. Values are mean ± in […]

5-HT3 [2] = biological target: T1, 5-HT3; experiment: Inhibition of the binding of ^3 H-BRL 43694 (5-HT3 binding affinity, rat entorhinal cortex); set-up: from tissue; host or cells: rat entorhinal cortex (brain cortical membranes)
Description: The following Table II summarized the data obtained in this in-vitro test for the representative compound of the invention coded as FCE 28572.
5-HT3 binding affinity for rat entorhinal

% inhibition of the von Bezold-Jarisch reflex elicited by 5-HT (5-HT3 [1]; compound 100 μg/kg i.v., mean ± S.E.M. from 6 animals): 86.7%
ED50 (5-HT3 [1]; iv, limits (10.4-31.7), read-out: ED50 (limits), inhibition of the von Bezold-Jarisch reflex elicited by 5-HT): 0.0161 mg/kg
IC50 (5-HT3 [2]): 23 nM
Structure (SMILES): Cc1[nH]cnc1CN1Cc2cc3ccccc3n2C1=O [FCE 28572, 2-(5-methyl-1H-imidazol-4-yl)methyl-1,2-dihydro-imidazo[1,5-a]indol-3-one]
